Values quoted from earlier work as cited in patent US20260297123A1, “METHODS FOR THE SYNTHESIS OF NUCLEOSIDE ANALOGUES AND NUCLEOSIDES ANALOGUES DERIVED THEREFROM” (SIMON FRASER UNIVERSITY, priority 2023, published 2026).
Like-named read-outs stand apart in the source and are kept apart here.

Details: for pKa, H2O: values <0 and >14 extrapolated; for pKa, H2O (first of several listed) / pKa, (DMSO) (first of several listed): first value listed; for pKa, H2O (second of several listed) / pKa, (DMSO) (second of several listed): second value listed
[1] = DMSO (values in parentheses), values <0 and >35 extrapolated

| Compound | pKa, H2O (H2O) | pKa, (DMSO) [1] | further results |
| --- | --- | --- | --- |
| ON=C(c1ccccc1)c1ccccc1 | 11.3 |  |  |
| O=C(NO)c1ccccc1 |  | (13.7) | pKa, H2O (NH) (H2O, NH): 8.88 (NH) |
| CN(O)C(=O)c1ccccc1 |  | (16.5) |  |
| NCCN |  |  | pKa, H2O (first of several listed) (H2O): 6.90; pKa, H2O (second of several listed) (H2O): 9.95 |
| CCC(=O)Nc1ccccc1 |  |  | pKa, (DMSO) (dmso): (21.6) |
| O=C1CCCN1 | 12 |  |  |
| O=C1NC(=O)c2ccccc21 | 6.30 |  |  |
| CN(C)C(=N)N(C)C |  | (13.5) |  |
| NNC(=O)c1ccccc1 |  | (18.9) |  |
| Oc1ccccn1 |  | (17.0) |  |
| C1=Cc2ccccc2C1 | 20 |  |  |
| CCOC(=O)C[N+](C)(C)C |  | (20.0) |  |
| CCOC(=O)CC(C)=O | 11 | (14.2) |  |
| N#CCC(=O)N1CCCC1 |  | (17.2) |  |
| CCC(=O)CC | 19-20 |  |  |
| CC(=O)C(C)(C)C |  |  | pKa, (DMSO) (dmso): (27.7) |
| C[S+](Cc1ccccc1)c1ccccc1 (centres unmarked) |  |  | pKa, (DMSO) (first of several listed): 16.2; pKa, (DMSO) (second of several listed): 16.3 |
| CS(=O)(=O)C(F)(F)F |  | (18.8) |  |
| Nc1ccc2ccccc2c1 [2-naphthal-N^+H3] | 4.16 |  |  |
| Oc1ccc2ccccc2c1 [2-napthol] |  | (17.1) |  |
| OC(C(F)(F)F)C(F)(F)F [(CF3)2CHOH] |  | (17.9) |  |
| CC(=O)NC(C)=O [Ac2NH] |  | (17.9) |  |
| OB(O)O [B(OH)3] | 9.23 |  |  |
| CCCCS [BuSH] | 10-11 | (17.0) |  |

| Compound | pKa, H2O (H2O) | pKa, (DMSO) [1] | further results |
| --- | --- | --- | --- |
| OCC(F)(F)F [CF3CH2OH] | 12.5 |  |  |
| NS(=O)(=O)C(F)(F)F [CF3SO2NH2] |  | (9.7) |  |
| O=S(=O)(O)C(F)(F)F [CF3SO3H] |  | (0.3) |  |
| CC(=O)OO [CH3CO3H] | 8.2 |  |  |
| C1CN2CCN1CC2 [DABCO] |  |  | pKa, (DMSO) (first of several listed): 2.97; pKa, (DMSO) (second of several listed): 8.93; pKa, H2O (first of several listed) (H2O): 2.97; pKa, H2O (second of several listed) (H2O): 8.82 |
| C1CCC2=NCCCN2CC1 [DBU] |  |  | pKa, (DMSO) (dmso): (12) (estimate) |
| CN(C)c1ccncc1 [DMAP] | 9.2 |  |  |
| CCP(CC)CC [Et3P^+H] | 9.1 |  |  |
| [O]=[Cr](=[O])([OH])[OH] [H2CrO4] |  |  | pKa, H2O (first of several listed) (H2O): −0.98; pKa, H2O (second of several listed) (H2O): 6.50 |
| O=S(O)O [H2SO3] |  |  | pKa, H2O (first of several listed) (H2O): 1.9; pKa, H2O (second of several listed) (H2O): 7.21 |
| Br [HBt] |  | (0.9) |  |
| F [HF] | 3.17 | (15) |  |
| O=NO [HNO2] | 3.29 |  |  |
| O=[N+]([O-])O [HNO3] | −1.3 |  |  |
| OCl [HOCl] | 7.5 |  |  |
| OO [HOOH] | 11.6 |  |  |
| N#CS [HSCN] | 4.00 |  |  |
| CO [MeOH] | 15.54 |  |  |
| COO [MeOOH] | 11.5 |  |  |
| CS(N)(=O)=O [MeSO2NH2] |  | (17.5) |  |
| CS(=O)(=O)Nc1ccccc1 [MeSO2NHPh] |  | (12.9) |  |
| N#CN [NCNH2] |  | (16.9) |  |
| c1ccc(Nc2ccccc2)cc1 [Ph2N^+H2] | 0.78 |  |  |
| N#CC[P+](c1ccccc1)(c1ccccc1)c1ccccc1 [Ph3P^+CH2CN] |  | (7.0) |  |

| Compound | pKa, H2O (H2O) | pKa, (DMSO) [1] | further results |
| --- | --- | --- | --- |
| O=C(C[P+](c1ccccc1)(c1ccccc1)c1ccccc1)c1ccccc1 [Ph3P^+CH2COPh] |  | (6.2) |  |
| CN(C)c1ccccc1 [PhN^+(Me)2H] | 5.20 | (2.50) |  |
| O=[N+]([O-])CSc1ccccc1 [PhSCH2X, X = NO2] |  | (11.8) |  |
| O=S(=O)(CSc1ccccc1)C(F)(F)F [PhSCH2X, X = SO2CF3] |  | (11.0) |  |
| NS(=O)(=O)c1ccccc1 [PhSO2NH2] |  | (16.1) |  |
| NNS(=O)(=O)c1ccccc1 [PhSO2NHNH2] |  | (17.2) |  |
| CN(C)c1cccc2cccc(N(C)C)c12 [Proton Spong ?] |  |  | pKa, (DMSO) (second of several listed): 7.50; pKa, H2O (second of several listed) (H2O): 12.0 |
| O=[N+]([O-])CCc1ccccc1 [RNO2, R = CH2Bn] |  | (16.2) |  |
| CC[N+](=O)[O-] [RNO2, R = CH2Me] |  | (16.7) |  |
| O=[N+]([O-])Cc1ccccc1 [RNO2, R = CH2Ph] |  | (12.2) |  |
| C[N+](=O)[O-] [RNO2, R = CH3] |  | (17.2) |  |
| CC(C)[N+](=O)[O-] [RNO2, R = CHMe2] |  | (16.9) |  |
| O=C(O)C(Cl)(Cl)Cl [drawing 16, X = CCl3] | 0.65 |  |  |
| O=C(O)C(F)(F)F [drawing 16, X = CF3] | −0.25 |  |  |
| O=C(O)C[N+](=O)[O-] [drawing 16, X = CH2NO2] | 1.68 |  |  |
| O=C(O)O [drawing 16, X = HO] |  |  | pKa, H2O (first of several listed) (H2O): 3.6 |
| O=C(O)c1cccc(Cl)c1 [drawing 16, X = m-ClC6H4] | 3.83 |  |  |
| O=C(O)c1cccc([N+](=O)[O-])c1 [drawing 16, X = m-O2NC6H4] | 2.45 |  |  |
| C[N+](C)(C)c1ccccc1C(=O)O [drawing 16, X = o-(CH3)3N^+C6H4] | 1.37 |  |  |
| C[N+](C)(C)c1ccc(C(=O)O)cc1 [drawing 16, X = p-(CH3)3N^+C6H4] | 3.43 |  |  |
| O=C(O)c1ccc([N+](=O)[O-])cc1 [drawing 16, X = p-O2NC6H4] | 3.44 |  |  |
| C=CC(=O)O [drawing 17, R = H] | 4.25 |  |  |
| NC(=O)C(F)(F)F [drawing 41, R = CF3] |  | (17.2) |  |
| CC(=O)CC(C)=O [drawing 77, X = COCH3] | 9 | (13.3) |  |

| Compound | pKa, H2O (H2O) | pKa, (DMSO) [1] | further results |
| --- | --- | --- | --- |
| CC(=O)Cc1ccccc1 [drawing 77, X = Ph] |  | (19.8) |  |
| CC(=O)CS(=O)(=O)c1ccccc1 [drawing 77, X = SO2Ph] |  | (15.1) |  |
| CC(=O)CSc1ccccc1 [drawing 77, X = SPh] |  | (18.7) |  |
| N#CCC(=O)c1ccccc1 [drawing 82, X = CN] |  | (10.2) |  |
| CC(=O)CC(=O)c1ccccc1 [drawing 82, X = COCH3] |  | (12.7) |  |
| O=C(CC(=O)c1ccccc1)c1ccccc1 [drawing 82, X = COPh] |  | (13.3) |  |
| O=C(C[N+](=O)[O-])c1ccccc1 [drawing 82, X = NO2] |  | (7.7) |  |
| C[N+](C)(C)CC(=O)c1ccccc1 [drawing 82, X = N^+Me3] |  | (14.6) |  |
| O=C(Cc1ccccc1)c1ccccc1 [drawing 82, X = Ph] |  | (17.7) |  |
| O=C(CS(=O)(=O)c1ccccc1)c1ccccc1 [drawing 82, X = SO2Ph] |  | (11.4) |  |
| O=C(CSc1ccccc1)c1ccccc1 [drawing 82, X = SPh] |  | (16.9) |  |
| O=C(C[Se]c1ccccc1)c1ccccc1 [drawing 82, X = SePh] |  | (18.6) |  |
| N#CC1SCCCS1 [drawing 97, X = CN] |  | (19.1) |  |
| N#CCS(=O)(=O)c1ccccc1 [drawing 107, X = CN] |  | (12.0) |  |
| CC(=O)CS(=O)(=O)c1ccccc1 [drawing 107, X = COMe] |  | (12.5) |  |
| O=[N+]([O-])CS(=O)(=O)c1ccccc1 [drawing 107, X = NO2] |  | (7.1) |  |
| C[N+](C)(C)CS(=O)(=O)c1ccccc1 [drawing 107, X = N^+Me3] |  | (19.4) |  |
| CC(C)O [i-PrOH] | 16.5 |  |  |
| O=[N+]([O-])c1cccc(O)c1 [m-C2NC6H4OH] | 8.35 |  |  |
| O=[N+]([O-])c1ccc(O)cc1 [p-O2NC6H4OH] | 7.14 | (10.8) |  |
| COc1ccc(O)cc1 [p-OMeC6H4OH] | 10.20 | (19.1) |  |
| CC(C)(C)O [t-BuOH] | 17 |  |  |
